Experimental data as given in patent US9096875B2 (Montana State University, priority 2010, dated 2015).
“And” between values parts separate entries of the source, which are not always exact repeats. Equal entries are not always repeated. Where two headings read alike, the source gives them in different places.

What was measured:
Scenedesmus WC-1 = conditions: for total Nile Red fluorescence reached: began to increase at 5 d; for Dry Weight (DCW) / Final Cell Density / Final Total Nile Red Fluorescence / Final Specific Nile Red Intensity Cell-1: WC-1, 5% CO2 → Air; for Dry Weight (DCW) / Final Cell Density / Final Total Nile Red Fluorescence: n = 3; for Final Specific Nile Red Intensity Cell-1: fluorescence signal/cell density × 10,000
Method: Cultures were grown with 5% CO2 until nitrate depletion was imminent.
(§1) Scenedesmus sp. strain WC-1 (WC-1) was isolated and confirmed unialgal as previously described (Gardner et al. 2010). WC-1 was cultured on Bold's basal medium with pH adjusted to 8.7 with KOH previous to autoclaving (Nichols and Bold 1965). Phaeodactylum tricornutum strain Pt-1 (CCMP 2561) (Pt-1) was acquired from The Provasoli-Guillard National Center for Culture of Marine Phytoplankton (CCMP). Pt-1 was cultured on ASP II medium and 50 mM Tris buffer (Sigma-Aldrich, St. Louis Mo.), pKa 7.8 (Provasoli et al. 1957). Both organisms were checked for bacterial contamination by inoculation into respective medium supplemented with 0.05% yeast extract and 0.05% glucose and incubated in the dark. Experiments were conducted in triplicate in batch culture using 70 mm×500 mm glass tubes containing 1 L media submersed in a water bath to control temperature. Rubber stoppers, containing ports for aeration and sampling, were used to seal the tubes. Temperature was maintained at 24° C. and 20° C., ±1° C., for WC-1 and Pt-1, respectively. Light (400 μmoles m^−2s^−1) was maintained on a 14:10 light:dark cycle by a T5 light bank. Aeration (400 mL min^−1) was supplied by humidified compressed air with and without 5% CO2 (v/v) and controlled using individual rotameters on each bioreactor (Cole-Parmer, Vernon Hills Ill.).
(§2) Cell concentrations were determined using an optical hemacytometer with a minimum of 400 cells counted for statistical reliability. Light micrographs and Nile Red fluorescence images were taken using a transmitted/epifluorescence light microscope (Nikon Eclipse E800) with an Infinity 2 color camera.
Medium pH was measured on samples using a standard bench top pH meter. Nitrate in Bolds basal medium was measured by ion chromatography (IC) using an IonPac AS9-HC Anion-Exchange Column (Dionex) with a 9.0 mM sodium carbonate buffer set at a flow rate of 1.0 mL min^−1. Detection was performed using a CD20 conductivity detector (Dionex) at 21° C., and IC data was analyzed on Dionex PeakNet 5.2 software. Nitrate in ASP II medium was measured using a colorimetric assay based on the reaction of Czechrome NAS reagent (Polysciences Inc., Warrington Pa.) with nitrate ions. In brief, 1 mL of culture was centrifuged at 16,000 g for 15 minutes. The supernatant liquid was then collected for nitrate quantification. 0.1 mL of sample was gently mixed with 1 mL of reagent solution prepared as described by the manufacturer (Polysciences Inc., Warrington Pa.), and incubated 20 minutes at room temperature. The absorbance was read at 570 nm, and nitrate concentration of the sample was calculated using a nitrate standard curve.
(§3) Cellular TAG accumulation was estimated using the Nile Red (9-diethylamino-5H-benzo(α)phenoxazine-5-one) (Sigma-Aldrich, St. Louis Mo.) fluorescence method (Cooksey et al. 1987). TAG accumulation over time was measured by removing 1 mL aliquots from cultures and assayed directly with Nile Red (4 μL from […] in acetone) or by diluting with 4 mL ultrapure H2O or salt water for WC-1 and Pt-1, respectively, before assaying directly with Nile Red (20 μL from […] in acetone). To maintain linearity of the Nile Red assay, dilution was required when population counts exceeded 1×10^7 cell mL^−1 and 3×10^6 cell mL^−1 for WC-1 and Pt-1, respectively. Total Nile Red fluorescence was quantified on a microplate reader (Bio-Tek, Winooski, Vt.) utilizing 480/580 nm excitation/emission filters.

[1] = test system: Phaeodactylum tricornutum Pt-1
Method: The diatom was cultured in ASP II medium, with or without adding NaHCO3 under 14:10 L:D cycle at […] A non-limiting example of ASP II medium is shown below:
as §1, §2
as §3, with “filters. […] To minimize fluorescence spillover, black walled 96-well plates were loaded with 200 μL of sample. Unstained samples were used for background medium and cellular autofluorescence correction. […]” for “filters.”

diatom RGd-1 = conditions: bicarbonate spike at 7.4 d, within 2-3 d of the spike, ambient air, 14:10 light-dark
Source text: RGd-1 was obtained from Yellowstone National Park under Permit No. YELL-2009-SCI-5480. These cultures were illuminated with 14:10 light-dark cycling with ambient air aeration.

Coelastrella sp. PC-3 = test system: Coelastrella sp. PC-3
Method: The addition of 50 mM NaHCO3 prior to nitrate depletion was tested on Coelastrella sp. PC-3.

Chlorophyta sp. EN-2 = conditions: 50 mM NaHCO3 prior to nitrate depletion
Method: The addition of 50 mM NaHCO3 prior to nitrate depletion was tested on Chlorophyta sp. EN-2.

Kirchneriella sp. 92 = conditions: 50 mM NaHCO3 prior to nitrate depletion
Method: (§4) The addition of 50 mM NaHCO3 prior to nitrate depletion was tested on Chlorophytes Scenedesmus sp.

Scenedesmus sp. 131 = conditions: 50 mM NaHCO3 prior to nitrate depletion
Method: as §4

[2] = HCO3 addition at 3.7 d (pre-nitrate depletion), harvest 8.0 d
[3] = HCO3 addition at 6.4 d (post-nitrate depletion), harvest 12.0 d

Compound: O=C([O-])[O-].[Na+].[Na+] [Na2CO3, sodium carbonate, reference compound]
- TAG accumulation (Scenedesmus WC-1; all cases of Na2CO3 addition (individual, mix, buffered), near nitrate depletion): did not accumulate elevated levels of TAG

Compound: O=C([O-])O.[Na+] [bicarbonate, sodium bicarbonate]
- TAG induction (Scenedesmus WC-1; 25 mM NaHCO3 with 25 mM CAPS buffer (pKa 10.3), near nitrate depletion): almost identical to the unbuffered additions
- period of TAG accumulation (Scenedesmus WC-1; 50 mM bicarbonate added at 3.7 d (pre-nitrate depletion)): 5 to 8 days
- Nile Red fluorescence after decrease to baseline (Scenedesmus WC-1; 50 mM bicarbonate added at 6.4 d, post-nitrate depletion): 450 units
- Nile Red fluorescence / TAG accumulation response (Scenedesmus WC-1; 50 mM bicarbonate added post-nitrate depletion (stationary phase), aeration adjusted to ambient air, listed as NaHCO3): complete loss of cellular TAG accumulation
- TAG accumulation (Scenedesmus WC-1; 25 and 50 mM added to unbuffered medium near nitrate depletion (FIG. 15)): induce similar levels of TAG
- total Nile Red fluorescence reached (Scenedesmus WC-1; Example 4: 50 mM bicarbonate spike at 3.7 d, value 4 days later): 20,000 units
- total Nile Red fluorescence reached (Scenedesmus WC-1; Example 5: 50 mM bicarbonate addition at 3.7 d, value 3 days later): 33,500 units
- Dry Weight (DCW) (Scenedesmus WC-1; [2]): 1.1 ± 0.1 g/L
- Final Cell Density (Scenedesmus WC-1; [2]): 1.34 ± 0.15 ×10^7 cells mL^−1
- Final Total Nile Red Fluorescence (Scenedesmus WC-1; [2]): 33.5 ± 6.3 ×10^3 units
- Final Specific Nile Red Intensity Cell-1 (Scenedesmus WC-1; [2]): 24.8 ± 2.2
- Dry Weight (DCW) (Scenedesmus WC-1; [3]): 2.1 ± 0.0 g/L
- Final Cell Density (Scenedesmus WC-1; [3]): 5.18 ± 0.41 ×10^7 cells mL^−1
- Final Total Nile Red Fluorescence (Scenedesmus WC-1; [3]): 0.3 ± 0.3 ×10^3 units
- Final Specific Nile Red Intensity Cell-1 (Scenedesmus WC-1; [3]): 0.1 ± 0.1
- minimal concentration range needed to stop cellular replication (Scenedesmus WC-1; addition just prior to medium nitrate depletion): 10 to 15 mM
- culture time at which maximum total Nile Red fluorescence was reached (Scenedesmus WC-1; bicarbonate supplemented culture, instead of 16-18 d in ambient aerated culture): 8 days
- cell morphology by microscope (Scenedesmus WC-1; less than 10 mM NaHCO3 addition): did not indicate cell cycle halting characteristics
- rate of TAG accumulation (Scenedesmus WC-1; when bicarbonate was added (50 mM, near nitrate depletion), versus ambient aerated culture): twice as fast
- time to reach maximum Nile Red fluorescence signal (Scenedesmus WC-1; with bicarbonate spike, compared with 8-10 d under ambient air aeration with no spike): 3 to 4 days
- Dry Weight (DCW) [1]: 0.1 ± 0.0 g/L
- Final Cell Density [1]: 0.65 ± 0.01 ×10^7 cells mL^−1 and 1.02 ± 0.05 ×10^7 cells mL^−1
- effect on cell replication [1]: cell replication was not inhibited
- lipid production (Nile Red fluorescence) [1]: stimulated more lipid production
- total Nile Red fluorescence increase over the no spike control (diatom RGd-1): 10 fold
- TAG accumulation measured with Nile Red fluorescence (Coelastrella sp. PC-3): no observable increase in TAG accumulation
- effect on cellular replication (Coelastrella sp. PC-3): cellular replication ceased
- TAG accumulation rate (Chlorophyta sp. EN-2): observable increase
- TAG per cell level (Nile Red specific fluorescence) (Chlorophyta sp. EN-2): observable increase
- TAG accumulation rate (Kirchneriella sp. 92): decrease in TAG accumulation rate
- TAG accumulation rate (Scenedesmus sp. 131): increase in TAG accumulation rate
